Reference: ChEMBL document CHEMBL1135902, “Molecular interaction of the antagonist N-(piperidin-1-yl)-5-(4-chlorophenyl)-1- (2,4-dichlorophenyl)-4-methyl-1H-pyrazole-3-carboxamide with the CB1 cannabinoid receptor” (J Med Chem, 2002)
pKi: −log10 of the molar value.

Molecular target: Cannabinoid receptor 1 (Rattus norvegicus, UniProt P20272)
Type: cell membranes, Brain, Brain membranes
Description: Inhibition of [3H]CP-55940 binding to cannabinoid receptor 1 in rat brain membranes.

Chain of Cannabinoid receptor 1 (P20272 whole entry): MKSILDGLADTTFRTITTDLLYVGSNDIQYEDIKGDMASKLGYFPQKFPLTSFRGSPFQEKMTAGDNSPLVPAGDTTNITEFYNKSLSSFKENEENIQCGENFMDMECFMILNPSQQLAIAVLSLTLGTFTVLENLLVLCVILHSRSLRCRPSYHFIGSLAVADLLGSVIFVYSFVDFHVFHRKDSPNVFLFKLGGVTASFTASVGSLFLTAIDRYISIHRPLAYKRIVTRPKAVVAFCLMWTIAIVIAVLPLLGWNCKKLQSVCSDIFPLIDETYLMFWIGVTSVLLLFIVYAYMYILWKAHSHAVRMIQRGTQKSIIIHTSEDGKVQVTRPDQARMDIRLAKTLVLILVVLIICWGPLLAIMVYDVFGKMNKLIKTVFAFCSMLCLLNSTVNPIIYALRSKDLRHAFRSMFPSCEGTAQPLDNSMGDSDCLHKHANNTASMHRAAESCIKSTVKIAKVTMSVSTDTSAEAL

CCCCCn1nc(C(=O)NN2CCCCC2)c(C)c1-c1ccc(Br)cc1 gave a pKi of 7.20.

With Cc1c(C(=O)NC2CCCCC2)nn(-c2ccc(Cl)cc2Cl)c1-c1ccc(Br)cc1 the pKi was 7.82.

CCCCCC(=O)c1nn(-c2ccc(Cl)cc2Cl)c(-c2ccc(Cl)cc2)c1C was tested, and the pKi was 7.60.

CC(=O)c1ccc(-c2c(C#N)c(C(=O)Nc3ccccc3)nn2-c2ccccc2Cl)cc1 was tested, and the pKi was 8.15.

CCCCCc1ccc(-n2nc(C(=O)NN3CCCCC3)c(C)c2-c2ccc(Cl)cc2)cc1 showed a pKi of 5.87.

Cc1c(C(=O)N(C)C2CCCCC2)nn(-c2ccc(Cl)cc2Cl)c1-c1ccc(Br)cc1 gave a pKi of 7.25.

Work on O=C(NN1CCCCC1)c1nn(-c2ccc(Cl)cc2Cl)c2c(Cl)cccc12 yielded a pKi of 6.13.

Molecule CCCCn1nc(C(=O)NN2CCCCC2)c(C)c1-c1ccccc1 has a pKi of 6.73.

With Cc1c(C(=O)NN2CCCCC2)nn(C2CCCCC2)c1-c1ccccc1 the pKi was 6.41.

With CCCCCNC(=O)c1nn(-c2ccc(Cl)cc2Cl)c(-c2ccc(Cl)cc2)c1C the pKi was 8.52.

Molecule Cc1c(COCC2CCCCC2)nn(-c2ccc(Cl)cc2Cl)c1-c1ccc(Cl)cc1 has a pKi of 7.00.

Cc1c(COCc2ccc(F)cc2)nn(-c2ccc(Cl)cc2Cl)c1-c1ccc(Cl)cc1 gave a pKi of 8.22.

Work on Cc1c(C(=O)NN2CCCCC2)nn(-c2ccc(Cl)cc2)c1-c1ccc(Cl)cc1 yielded a pKi of 7.26.

Cc1c(C(=O)NN2CCCCC2)nn(-c2ccc([N+](=O)[O-])cc2)c1-c1ccc(Cl)cc1 showed a pKi of 6.96.

CCC(C)c1ccc(-n2nc(C(=O)NN3CCCCC3)c(C)c2-c2ccc(Cl)cc2)cc1 (configuration not stated) gave a pKi of 7.43.

CCCCCc1ccc(-c2c(C)c(C(=O)NN3CCCCC3)nn2-c2ccc(Cl)cc2Cl)cc1 gave a pKi of 9.00.

Work on O=C(NN1CCCCC1)c1nn(-c2ccc(Cl)cc2Cl)c2c([N+](=O)[O-])cccc12 yielded a pKi of 6.69.

CCCCCCn1nc(C(=O)NN2CCCCC2)c(C)c1-c1ccccc1 was tested, and the pKi was 7.68.

For Cc1c(C(=O)NN2CCCCC2)nn(-c2ccc(N)cc2)c1-c1ccc(Cl)cc1, the pKi was 7.14.

With CCCCCCCn1nc(C(=O)NN2CCCCC2)c(C)c1-c1ccccc1 the pKi was 7.33.

Molecule CCCCc1ccc(-n2nc(C(=O)NN3CCCCC3)c(C)c2-c2ccc(Cl)cc2)cc1 has a pKi of 6.59.

Molecule Cc1c(COCCN2CCCCC2)nn(-c2ccc(Cl)cc2Cl)c1-c1ccc(Cl)cc1 has a pKi of 6.63.

With CCCCCCCNC(=O)c1nn(-c2ccc(Cl)cc2Cl)c(-c2ccc(Cl)cc2)c1C the pKi was 8.52.

CCCCCn1nc(C(=O)NN2CCCCC2)c(C)c1-c1ccccc1 gave a pKi of 7.64.

For Cc1c(C(=O)NCCO)nn(-c2ccc(Cl)cc2Cl)c1-c1ccc(Br)cc1, the pKi was 6.78.

With Cc1c(C(=O)NN2CCCC2)nn(-c2ccc(Cl)cc2Cl)c1-c1ccc(Br)cc1 the pKi was 7.77.

Molecule Cc1c(C(=O)NN2CCOCC2)nn(-c2ccc(Cl)cc2Cl)c1-c1ccc(Br)cc1 has a pKi of 7.72.
